Results published in US20230072523A1, “PROCESS AND SYSTEM FOR ACELLULAR THERAPY” (Orgenesis Inc., priority 2020, published 2023).

Test: acetaminophen cytotoxicity, cell viability by XTT assay
Format: cell-based
Settings: 48 hrs incubation, control 100%; for viability at 48 h, 5 mM: acetaminophen 5 mM
From the text: In the current example, cytotoxicity-induced paracrine EVs were replaced by current existing extracorporeal regimen, in addition to replace depleted body fluids with protective EVs fused during hemodialysis. EV mimetics—Bioxomes or chelator-containing EV mimetics, named Redoxomes as described by us recently in PCT publication no. PCT/IL2019/050391 (incorporated herein by reference) were used. Selected chelator, DSFX—deferoxamine embedded in Redoxomes can be fused with EVs or body fluids, or cells to protect from cytotoxicity damage, prevent liver and kidney failure and mortality, morbidity rate. To establish growth conditions sensitive to proliferation inhibition cytoparameters, calibration of dynamic cell growth parameters was performed by calibration of cell number in CellTiter-Glo Assay (Promega) shown on tables 3 and 4 below in relative units.
Specific protective anti-cytotoxicity example tested on calibrated above assays of EV mimetic proprietary Bioxome, is shown in table below. Cell viability, %, measured by XTT assay (Biological Industries Beit Haemek). Cell viability without treatment was calibrated by dose dependence to serum conditions and cell density. Cell seeding established for 10000, 20000 cells/well in 96 well plates. For RCB001 cells (liver derived mesenchymal like cells)—10,000 cells. For −HepG2 cells—20,000 cells density used. Cells were grown in DMEM plus 10% exosome depleted FBS (ThermoFisher Scientific).

CC(=O)Nc1ccc(O)cc1 [Acetaminophen] gave a viability at 48 h, 5 mM (RCB001 cells (liver derived mesenchymal like cells)) of 57 to 81%, a viability at 48 h, 10 mN (RCB001 cells (liver derived mesenchymal like cells), acetaminophen) of 46% and a viability at 48 h, 5 mM (human, HepG2 cells) of 62%. For the same compound, the viability at 48 h, 10 mM (human, HepG2 cells, acetaminophen 10 mM) was 46%.
